# Test results taken from ChEMBL document CHEMBL6092181, “Design, synthesis, and biological evaluation of imidazo[4,5-b]pyridine mitochondrial uncouplers for the treatment of metabolic dysfunction-associated steatohepatitis (MASH)” (Eur J Med Chem, 2024).
# Calls of active or inactive are those of the source. No cut-off for these calls is given here.
# What was measured:
# [1] = Half-life in C57BL/6 mouse at 10 mg/kg, po by LC-MS/MS method; type: ADME, organism-based; details: in vivo
# [2] = Cmax in C57BL/6 mouse at 10 mg/kg, po by LC-MS/MS method; type: ADME, organism-based; details: in vivo
# L6 [3] = test: Uncoupling activity in rat L6 myoblasts assessed as oxygen consumption rate incubated over 90 mins; type: functional, cell-based
# L6 [4] = test: Uncoupling activity in rat L6 myoblasts assessed as oxygen consumption rate incubated for 2 mins relative to N5,N6-bis(2-fluorophenyl)-[1,2,5]oxadiazolo[3,4-b]pyrazine-5,6-diamine; type: functional
# L6 [5] = test: Cytotoxicity against rat L6 cells; type: toxicity, cell-based
# [6] = Toxicity in C57BL/6 mouse assessed as change in appetite at 30 to 1000 mg/kg, po measured after 24 hrs; type: organism-based; details: in vivo, dose 30-1000 mg/kg
# L6 [7] = test: Uncoupling activity in rat L6 cells assessed as increase in oxygen consumption rate incubated for 40 mins in presence of antimycin A; type: functional, cell-based
# [8] = Induction of respiration in rat L6 cells assessed as oxygen consumption rate at 3.3 uM pretreated with compound followed by N5,N6-bis(2-fluorophenyl)-[1,2,5]oxadiazolo[3,4-b]pyrazine-5,6-diamine addition; type: functional
# [9] = Cmax in C57BL/6 mouse at 30 mg/kg, po by LC-MS/MS method; type: ADME, organism-based; details: in vivo
# L6 [10] = test: Uncoupling activity in rat L6 cells assessed as increase in oxygen consumption rate incubated for 40 mins in presence of rotenone; type: functional, cell-based
# [11] = Toxicity in C57BL/6 mouse assessed as change in body weight at 100 to 300 mg/kg, po administered daily and measured after 31 days; type: organism-based; details: in vivo, 744 h, dose 100-300 mg/kg, time 31 day
# Mus musculus [12] = test: Anti-MASH activity in GAN-diet induced metabolic dysfunction associated steatohepatitis in C57BL/6 mouse assessed as decrease in liver triglyceride level at 100 to 300 mg/kg, po administered daily measured after 4 weeks; type: functional, organism-based; details: dose 100-300 mg/kg
# Mus musculus [13] = test: Anti-MASH activity in GAN-diet induced metabolic dysfunction associated steatohepatitis in C57BL/6 mouse assessed as change in plasma cholesterol level at 100 to 300 mg/kg, po administered daily measured after 4 weeks; type: functional, organism-based; details: dose 100-300 mg/kg
# [14] = Induction of respiration in rat L6 cells assessed as oxygen consumption rate at 3.3 uM; type: functional
# [15] = Half-life in C57BL/6 mouse at 30 mg/kg, po by LC-MS/MS method; type: ADME, organism-based; details: in vivo
# [16] = Toxicity in C57BL/6 mouse assessed as change in body weight at 30 to 1000 mg/kg, po measured after 24 hrs; type: organism-based; details: in vivo, dose 30-1000 mg/kg
# Mus musculus [17] = test: Anti-MASH activity in GAN-diet induced metabolic dysfunction associated steatohepatitis in C57BL/6 mouse assessed as change in liver size at 100 to 300 mg/kg, po administered daily measured after 4 weeks; type: functional, organism-based; details: dose 100-300 mg/kg
# [18] = Toxicity in C57BL/6 mouse assessed as change in body temperature at 30 to 1000 mg/kg, po measured after 24 hrs; type: organism-based; details: in vivo, dose 30-1000 mg/kg
# Mus musculus [19] = test: Anti-MASH activity in GAN-diet induced metabolic dysfunction associated steatohepatitis in C57BL/6 mouse assessed as change in plasma triglyceride level at 100 to 300 mg/kg, po administered daily measured after 4 weeks; type: functional, organism-based; details: dose 100-300 mg/kg
# [20] = Toxicity in C57BL/6 mouse assessed as adverse effect at 30 to 1000 mg/kg, po measured after 24 hrs; type: organism-based; details: in vivo, dose 30-1000 mg/kg
# [21] = Rattus norvegicus, L6, 1.5 h, read-out: EC50
smiles,measurement,setting,value
FC(F)(F)c1ccc(-c2ccnc3[nH]c(C(F)(F)F)nc23)cc1,half-life,[1],3.4 h
same,Cmax,[2],8 µM
same,EC50,L6 [3]; [21],1.3 µM
same,Activity,L6 [4],46%
FC(F)(F)c1nc2c(-c3cc(Cl)cc(Cl)c3)ccnc2[nH]1,half-life,[1],25.3 h
same,Cmax,[2],13 µM
same,EC50,L6 [3]; [21],1.1 µM
same,Activity,L6 [4],76%
FC(F)(F)c1ccc(-c2ccnc3[nH]c(C(F)(F)C(F)(F)F)nc23)cc1,EC50,L6 [3]; [21],4.69 µM
same,Activity,L6 [4],31%
COc1ccc(-c2ccnc3[nH]c(C(F)(F)F)nc23)cc1,EC50,L6 [3]; l6,Not_active
Oc1ccc(-c2ccnc3[nH]c(C(F)(F)F)nc23)cc1,EC50,L6 [3]; l6,Not_active
Fc1cc(F)cc(Oc2ccc3nc(C(F)(F)F)[nH]c3n2)c1,EC50,L6 [3]; [21],3.9 µM
same,Activity,L6 [4],45%
FC(F)(F)c1cc(-c2ncnc3[nH]c(C(F)(F)F)nc23)cc(C(F)(F)F)c1,Activity,L6 [5],Toxic
Fc1ccccc1Oc1ccc2nc(C(F)(F)F)[nH]c2n1,EC50,L6 [3]; [21],30.8 µM
same,Activity,L6 [4],30%
Fc1cccc(Oc2ccc3nc(C(F)(F)F)[nH]c3n2)c1,EC50,L6 [3]; [21],10.3 µM
same,Activity,L6 [4],47%
Fc1ccccc1-c1ccc2nc(C(F)(F)F)[nH]c2n1,EC50,L6 [3]; [21],16 µM
same,Activity,L6 [4],35%
Cc1ccc(-c2ccnc3[nH]c(C(F)(F)F)nc23)cc1,EC50,L6 [3]; l6,Not_active
FC(F)(F)c1cccc(-c2ccnc3[nH]c(C(F)(F)F)nc23)c1,half-life,[1],5.5 h
same,Cmax,[2],28 µM
same,EC50,L6 [3]; [21],0.85 µM
same,Activity,L6 [4],42%
FC(F)(F)c1ccc(-c2ncnc3[nH]c(C(F)(F)F)nc23)cc1,EC50,L6 [3]; [21],1.2 µM
same,Activity,L6 [4],45%
FC(F)(F)c1cccc(Oc2ccnc3[nH]c(C(F)(F)F)nc23)c1,EC50,L6 [3]; [21],3.7 µM
same,Activity,L6 [4],20%
Fc1ccc(Oc2ccc3nc(C(F)(F)F)[nH]c3n2)c(F)c1,EC50,L6 [3]; [21],12.6 µM
same,Activity,L6 [4],43%
FC(F)(F)c1ccc(-c2ccc3nc(C(F)(F)F)[nH]c3n2)cc1,EC50,L6 [3]; [21],1 µM
same,Activity,L6 [4],11%
Fc1ccc(-c2ccnc3[nH]c(C(F)(F)F)nc23)cc1F,EC50,L6 [3]; [21],4.4 µM
same,Activity,L6 [4],34%
FC(F)c1nc2c(-c3ccc(C(F)(F)F)cc3)ccnc2[nH]1,EC50,L6 [3]; l6,Not_active
FC(F)(F)Oc1cccc(-c2ccnc3[nH]c(C(F)(F)F)nc23)c1,Activity,[6],Non-toxic
same,Activity,L6 [7],inactive
same,Activity,[8],300%
same,Cmax,[9],34.7 µM
same,Activity,L6 [10],inactive
same,Activity,[11],Non-toxic
same,half-life,[1],1.3 h
same,Activity,Mus musculus [12],Active
same,Activity,Mus musculus [13],inactive
same,Cmax,[2],22 µM
same,Activity,[14],200%
same,half-life,[15],3.7 h
same,Activity,[16],Non-toxic
same,Activity,Mus musculus [17],inactive
same,Activity,[18],Non-toxic
same,Activity,Mus musculus [19],inactive
same,EC50,L6 [3]; [21],0.83 µM
same,Activity,[20],Non-toxic
same,Activity,L6 [4],41%
Fc1cccc(-c2ccnc3[nH]c(C(F)(F)F)nc23)c1,EC50,L6 [3]; [21],8.2 µM
same,Activity,L6 [4],32%
FC(F)(F)c1nc2c(-c3ccc(Cl)cc3)ccnc2[nH]1,EC50,L6 [3]; [21],> 100 µM
same,Activity,L6 [4],22%
Fc1cccc(Oc2ccc3nc(C(F)(F)F)[nH]c3n2)c1F,EC50,L6 [3]; [21],7.1 µM
same,Activity,L6 [4],39%
FC(F)(F)c1cc(-c2ccnc3[nH]c(C(F)(F)F)nc23)cc(C(F)(F)F)c1,EC50,L6 [3]; [21],> 100 µM
same,Activity,L6 [4],45%
FC(F)(F)Oc1cccc(-c2ccc3nc(C(F)(F)F)[nH]c3n2)c1,EC50,L6 [3]; [21],1.4 µM
same,Activity,L6 [4],8%
Fc1cc(F)cc(-c2ccnc3[nH]c(C(F)(F)F)nc23)c1,half-life,[1],2.8 h
same,Cmax,[2],37 µM
same,EC50,L6 [3]; [21],1.5 µM
same,Activity,L6 [4],42%
FC(F)(F)c1nc2c(-c3ccccc3)ccnc2[nH]1,EC50,L6 [3]; l6,Not_active
Fc1ccc(-c2ccnc3[nH]c(C(F)(F)F)nc23)c(F)c1,EC50,L6 [3]; [21],11 µM
same,Activity,L6 [4],36%
FC(F)(F)Oc1ccc(-c2ccnc3[nH]c(C(F)(F)F)nc23)cc1,EC50,L6 [3]; [21],0.48 µM
same,Activity,L6 [4],19%
Fc1ccc(F)c(-c2ccnc3[nH]c(C(F)(F)F)nc23)c1,EC50,L6 [3]; [21],15 µM
same,Activity,L6 [4],54%
Fc1ccccc1-c1ccnc2[nH]c(C(F)(F)F)nc12,EC50,L6 [3]; [21],19.4 µM
same,Activity,L6 [4],18%
FC(F)(F)c1ccc(-c2ccnc3[nH]c(C(F)(F)F)nc23)cn1,EC50,L6 [3]; [21],2.6 µM
same,Activity,L6 [4],25%
Cc1ccnc2[nH]c(C(F)(F)F)nc12,EC50,L6 [3]; l6,Not_active
Fc1cc(F)cc(Oc2ccnc3[nH]c(C(F)(F)F)nc23)c1,EC50,L6 [3]; [21],11.9 µM
same,Activity,L6 [4],43%
FC(F)(F)c1cccc(-c2ncnc3[nH]c(C(F)(F)F)nc23)c1,EC50,L6 [3]; [21],1.2 µM
same,Activity,L6 [4],46%
Fc1ccc(-c2ccnc3[nH]c(C(F)(F)F)nc23)cc1,EC50,L6 [3]; [21],4.4 µM
same,Activity,L6 [4],6%
FC(F)(F)c1nc2c(-c3cccc(Cl)c3)ccnc2[nH]1,half-life,[1],3 h
same,Cmax,[2],18 µM
same,EC50,L6 [3]; [21],2 µM
same,Activity,L6 [4],32%
Fc1cc(F)cc(-c2ncnc3[nH]c(C(F)(F)F)nc23)c1,EC50,L6 [3]; [21],4 µM
same,Activity,L6 [4],54%
FC(F)(F)Oc1ccc(-c2ccc3nc(C(F)(F)F)[nH]c3n2)cc1,EC50,L6 [3]; [21],1.3 µM
same,Activity,L6 [4],2%
CC(=O)c1ccc(-c2ccnc3[nH]c(C(F)(F)F)nc23)cc1,EC50,L6 [3]; [21],> 100 µM
same,Activity,L6 [4],21%
Fc1ccc(-c2ccc3nc(C(F)(F)F)[nH]c3n2)cc1,EC50,L6 [3]; [21],15 µM
same,Activity,L6 [4],42%
FC(F)(F)c1cccc(Oc2ccc3nc(C(F)(F)F)[nH]c3n2)c1,EC50,L6 [3]; [21],1.8 µM
same,Activity,L6 [4],19%
CC(F)(F)c1nc2c(-c3ccc(C(F)(F)F)cc3)ccnc2[nH]1,EC50,L6 [3]; l6,Not_active
FC(F)(F)c1nc2c(Cl)ccnc2[nH]1,EC50,L6 [3]; [21],29.8 µM
same,Activity,L6 [4],14%
FC(F)(F)c1ccc(-c2ccc3nc(C(F)(F)F)[nH]c3n2)cn1,EC50,L6 [3]; [21],11.9 µM
same,Activity,L6 [4],47%
Fc1cc(F)cc(-c2ccc3nc(C(F)(F)F)[nH]c3n2)c1,EC50,L6 [3]; [21],3.8 µM
same,Activity,L6 [4],32%
Fc1ccccc1Oc1ccnc2[nH]c(C(F)(F)F)nc12,EC50,L6 [3]; [21],58 µM
same,Activity,L6 [4],12%
FC(F)(F)c1cccc(-c2ccc3nc(C(F)(F)F)[nH]c3n2)c1,EC50,L6 [3]; [21],3 µM
same,Activity,L6 [4],36%
